How the values were obtained:
Assay type in all cases: in vivo
[1] = system: ryegrass, Italian (Italian ryegrass, Lolium multiflorum); test: Test A greenhouse herbicide test, pre- and postemergence
Outline: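 Visual injury ratings, 0 (no effect) to 100 (complete control), versus untreated plants after roughly 10 d in a greenhouse. Compounds, formulated in a surfactant-containing non-phytotoxic solvent, were sprayed on loam–sand soil after sowing (pre) or on one- to two-leaf plants 2–10 cm tall (post).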

[2] = system: barnyardgrass (Echinochloa crus-galli); test: Test B flooded paddy test; settings: 250 g ai/ha, Flood; visual rating on scale of 0 to 100 where 0 is no effect and 100 is complete control; 13 to 15 d after treatment
Outline: (§1)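 Ratings use a 0-100 visual scale, where 100 is complete control, and compare treated plants with controls after 13 to 15 d of greenhouse growth. Compound went straight into paddy water kept 3 cm over the soil surface, applied to seedlings at the 2-leaf stage.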

[3] = system: sedge, umbrella (small-flower umbrella sedge, Cyperus difformis); test: Test B flooded paddy test; settings: 250 g ai/ha, Flood; visual rating on scale of 0 to 100 where 0 is no effect and 100 is complete control; 13 to 15 d after treatment
Outline: as §1

rice (Oryza sativa) = test: Test B flooded paddy test; settings: 250 g ai/ha, Flood; visual rating on scale of 0 to 100 where 0 is no effect and 100 is complete control; 13 to 15 d after treatment
Outline: as §1

[4] = system: ducksalad (Heteranthera limosa); test: Test B flooded paddy test; settings: 250 g ai/ha, Flood; visual rating on scale of 0 to 100 where 0 is no effect and 100 is complete control; 13 to 15 d after treatment
Outline: as §1

[5] = system: oilseed rape (Brassica napus); test: Test C greenhouse herbicide test, pre- and postemergence
Outline: (§2)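 Visual 0–100 injury score (100 = complete control) taken against untreated controls after 13–15 d in greenhouse. Test chemicals, formulated in solvent plus surfactant, applied preemergence to seeds in loam–sand soil or postemergence to 1- to 4-leaf plants (2–18 cm).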

[6] = system: galium (catchweed bedstraw, Galium aparine); test: as above
Outline: as §2

[7] = system: foxtail, giant (giant foxtail, Setaria faberii); test: as above
Outline: as §2

[8] = system: galium (catchweed bedstraw, Galium aparine); test: Test A greenhouse herbicide test, postemergence; settings: for Galium plant response rating: 0 is no effect, 100 is complete control
Outline: (§3)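 Scores are visual injury ratings from 0 (no effect) to 100 (complete control) versus untreated plants, taken roughly 10 d after treatment in the greenhouse. Treatment was postemergence, on one- to two-leaf plants 2–10 cm high growing in a loam soil/sand mix.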

[9] = system: blackgrass (Alopecurus myosuroides); test: Test A greenhouse herbicide test, postemergence; settings: for Blackgrass plant response rating: 0 is no effect, 100 is complete control
Outline: as §3

[10] = Postemergence, 500 g ai/ha, 0 to 100 scale, 0 is no effect, 100 is complete control
[11] = Preemergence, 125 g ai/ha, 0 to 100 scale where 0 is no effect and 100 is complete control
[12] = Preemergence, 500 g ai/ha, 0 to 100 scale, 0 no effect, 100 complete control
[13] = Postemergence, 31 g ai/ha, 0 to 100 scale (0 no effect, 100 complete control)
[14] = Postemergence, 125 g ai/ha, scale 0 to 100, 0 is no effect, 100 is complete control
[15] = Postemergence, 250 g ai/ha, scale 0 to 100, 0 no effect, 100 complete control, 13 to 15 d
[16] = Preemergence, 31 g ai/ha, scale 0 to 100, 0 is no effect, 100 is complete control
[17] = Preemergence, 62 g ai/ha, scale 0 to 100, 0 is no effect, 100 is complete control
[18] = Preemergence, 125 g ai/ha, scale 0 to 100, 0 is no effect, 100 is complete control
[19] = Preemergence, 250 g ai/ha, scale 0 to 100, 0 no effect, 100 complete control
[20] = postemergence, 62 g ai/ha, scale 0 to 100, 0 no effect, 100 complete control
[21] = 125 g ai/ha, visual rating after approx. 10 d, 0 to 100 scale (0 no effect, 100 complete control)
[22] = Postemergence, 125 g ai/ha, 0 to 100 scale where 0 is no effect and 100 is complete control
[23] = 125 g ai/ha, 0 to 100 scale where 0 is no effect and 100 is complete control
[24] = Postemergence, 500 g ai/ha, visual rating after approx. 10 d, 0 to 100 scale (0 no effect, 100 complete control)
[25] = Preemergence, 500 g ai/ha, 0 to 100 scale where 0 is no effect and 100 is complete control
[26] = 125 g ai/ha, 0 to 100 scale, 0 no effect, 100 complete control
[27] = 500 g ai/ha, visual rating after approx. 10 d, 0 to 100 scale (0 no effect, 100 complete control)

| SMILES | Ryegrass, Italian plant response rating [1, 11] | Plant response rating, Barnyardgrass [2] | Plant response rating, Sedge, Umbrella [3] | Plant response rating, Rice (rice (Oryza sativa)) | Plant response rating, Ducksalad [4] | Plant response rating, Oilseed Rape [5, 14] | Plant response rating, Oilseed Rape [5, 15] | Plant response rating, Oilseed Rape [5, 16] | Plant response rating, Oilseed Rape [5, 17] | Plant response rating, Oilseed Rape [5, 18] | Oilseed Rape plant response rating [5, 19] | Oilseed Rape plant response rating [5, 20] | Plant response rating, Galium [6, 14] | Plant response rating, Galium [6, 15] | Plant response rating, Galium [6, 18] | Galium plant response rating [6, 19] | Plant response rating, Foxtail, Giant [7, 16] | Plant response rating, Foxtail, Giant [7, 17] | Plant response rating, Foxtail, Giant [7, 18] | Foxtail, Giant plant response rating [7, 19] | further results |
| --- | --- | --- | --- | --- | --- | --- | --- | --- | --- | --- | --- | --- | --- | --- | --- | --- | --- | --- | --- | --- | --- |
| Cc1ccc2ccccc2c1-c1c(O)c(Br)nn(C)c1=O [Compound 23] | 80 | 0 | 95 | 0 | 75 | 45 | 10 | 50 | 90 | 90 | 100 | 15 | 100 | 100 | 100 | 100 | 30 | 85 | 85 | 100 | Plant response rating, Ryegrass, Italian ([1]; Postemergence, 125 g ai/ha, visual rating after approx. 10 d, 0 to 100 scale (0 no effect, 100 complete control)): 100; Ryegrass, Italian plant response rating [1, 10]: 100; Plant response rating, Ryegrass, Italian [1, 12]: 90; Oilseed Rape plant response rating [5, 13]: 5; Galium plant response rating [6, 13]: 95; Plant response rating, Galium [6, 16]: 98; Plant response rating, Galium [6, 17]: 100; Galium plant response rating [6, 20]: 100; Foxtail, Giant plant response rating [7, 13]: 30; Plant response rating, Foxtail, Giant [7, 14]: 85; Plant response rating, Foxtail, Giant [7, 15]: 90; Foxtail, Giant plant response rating [7, 20]: 65; Plant response rating, Galium [8, 21]: 100; Galium plant response rating ([8]; 500 g ai/ha, 0 to 100 scale): 100; Plant response rating, Blackgrass [9, 21]: 70; Blackgrass plant response rating ([9]; 500 g ai/ha, 0 to 100 scale): 80 |
| Cc1ccc2sc(C)c(-c3c(OC(=O)OC(C)C)c(C)nn(C)c3=O)c2c1 [Compound 66] | 90 | 0 | 0 | 0 | 0 | 10 | 0 | 0 | 0 | 0 | 5 | 10 | 95 | 95 | 95 | 98 | 70 | 75 | 80 | 85 | Plant response rating, Ryegrass, Italian [1, 22]: 90; Ryegrass, Italian plant response rating [1, 10]: 100; Plant response rating, Ryegrass, Italian [1, 12]: 100; Oilseed Rape plant response rating [5, 13]: 0; Galium plant response rating [6, 13]: 90; Plant response rating, Galium [6, 16]: 90; Plant response rating, Galium [6, 17]: 90; Galium plant response rating [6, 20]: 95; Foxtail, Giant plant response rating [7, 13]: 40; Plant response rating, Foxtail, Giant [7, 14]: 65; Plant response rating, Foxtail, Giant [7, 15]: 80; Foxtail, Giant plant response rating [7, 20]: 55; Plant response rating, Galium [8, 23]: 90; Galium plant response rating ([8]; 500 g ai/ha, 0 to 100 scale): 90; Plant response rating, Blackgrass [9, 23]: 60; Blackgrass plant response rating ([9]; 500 g ai/ha, 0 to 100 scale): 80 |
| CC(=O)Oc1c(Cl)nn(C)c(=O)c1-c1c(C)sc2ccc(C(F)(F)F)cc12 [Compound 152] |  | 0 | 0 | 0 | 0 |  |  | 50 | 85 | 95 | 100 |  |  |  | 95 | 100 | 0 | 35 | 65 | 90 | Plant response rating, Ryegrass, Italian ([1]; Postemergence, 125 g ai/ha, 0 to 100 scale, 0 no effect, 100 complete control): 30; Plant response rating, Ryegrass, Italian [1, 24]: 90; Plant response rating, Ryegrass, Italian ([1]; Preemergence, 125 g ai/ha, visual injury rating, 0 to 100 scale (0 no effect, 100 complete control), approx. 10 d): 90; Plant response rating, Ryegrass, Italian [1, 25]: 100; Plant response rating, Galium [6, 16]: 50; Plant response rating, Galium [6, 17]: 45; Plant response rating, Galium [8, 26]: 60; Plant response rating, Galium [8, 27]: 70; Plant response rating, Blackgrass [9, 26]: 20; Plant response rating, Blackgrass [9, 27]: 30 |
| Cc1nn(C)c(=O)c(-c2ccc(Br)c3ccccc23)c1O [Compound 75] | 100 | 0 | 0 | 15 | 0 | 90 | 80 | 30 | 70 | 90 | 98 | 70 | 90 | 90 | 90 | 98 | 5 | 45 | 70 | 75 | Plant response rating, Ryegrass, Italian [1, 22]: 90; Ryegrass, Italian plant response rating [1, 10]: 100; Plant response rating, Ryegrass, Italian [1, 25]: 100; Oilseed Rape plant response rating [5, 13]: 70; Galium plant response rating [6, 13]: 90; Plant response rating, Galium [6, 16]: 90; Plant response rating, Galium [6, 17]: 90; Galium plant response rating [6, 20]: 90; Foxtail, Giant plant response rating [7, 13]: 5; Plant response rating, Foxtail, Giant [7, 14]: 5; Plant response rating, Foxtail, Giant [7, 15]: 10; Foxtail, Giant plant response rating [7, 20]: 5; Plant response rating, Galium [8, 23]: 90; Galium plant response rating ([8]; 500 g ai/ha, 0 to 100 scale): 100; Plant response rating, Blackgrass [9, 23]: 50; Blackgrass plant response rating ([9]; 500 g ai/ha, 0 to 100 scale): 70 |
| CC(=O)Oc1c(C)nn(C)c(=O)c1-c1c(C)cc(C)c2ccccc12 [Compound 99] | 100 | 0 | 0 | 0 | 0 | 60 | 55 | 0 | 40 | 90 | 98 | 5 | 98 | 98 | 98 | 98 | 40 | 35 | 65 | 90 | Plant response rating, Ryegrass, Italian [1, 22]: 100; Plant response rating, Ryegrass, Italian [1, 24]: 100; Plant response rating, Ryegrass, Italian [1, 25]: 100; Galium plant response rating [6, 20]: 95; Plant response rating, Foxtail, Giant [7, 14]: 30; Plant response rating, Foxtail, Giant [7, 15]: 50; Foxtail, Giant plant response rating [7, 20]: 15; Plant response rating, Galium [8, 23]: 100; Plant response rating, Galium [8, 27]: 100; Plant response rating, Blackgrass [9, 23]: 60; Blackgrass plant response rating ([9]; 500 g ai/ha, 0 to 100 scale): 80 |

From patent US10597388B2, “Pyridazinone herbicides” (FMC CORPORATION, priority 2014, dated 2020)
